# Laboratory results reported in patent publication US9359322B2, “C-linked glucuronide of N-(4-hydroxybenzyl) retinone, analogs thereof, and methods of using the same to inhibit neoplastic cell growth” (Wisconsin Alumni Research Foundation, priority 2005, dated 2016).
# Experiment: Body weight change during retinoid feeding
# Type: in vivo, rat
# Settings: relative to baseline body weight over 22 days; 2 mmol/kg diet
# Method: Animal Studies: Mammary tumors were induced by intragastric intubation of 50-day old female Sprague-Dawley rats (Harlan Industries, Indianapolis, Ind.) with a single dose of 15 mg DMBA in 1.0 ml of sesame oil per rat. The rats were then maintained on a powdered Teklad 22/5 rodent chow diet (W) 8640 (Harlan Industries, Indianapolis, Ind.), and allowed food and water ad libitum. Four months later, rats which had developed palpable tumors were randomly assigned to the experimental groups (4 rats/group). The retinoid-treated groups were fed diets supplemented with 2 mmol/kg diet of atRA, 4-HPR, or 4-HBRCG, respectively. The retinoids were added to the diet in a vehicle consisting of 25 ml of ethanol: tricaprylin (1:4 v/v) plus 2% (w/v) of α-tocopherol as previously described.^9 This vehicle was also added to the control diet. The additives were blended into the chow diets using a Hobart food mixer. The diets were fed in stainless steel feeders designed with food hoppers. The food was replaced weekly with freshly prepared diets. Food consumption was determined once weekly, and from that the average daily consumption/rat was estimated. These diets were continuously fed for 22 days. Animals were also weighted weekly and monitored for general health status and signs of possible toxicity due to treatment.
# Baseline measurement of initial tumor sizes, numbers and rat body weights were determined immediately before commencement of treatments, and final measurements were recorded just prior to sacrifice of the animals. Animals were palpated for tumors twice weekly and tumor diameters were measured weekly by a micrometer caliper. Tumor volumes were calculated using the formula [V= 4/3 πr^3] where r is one-half the mean of the sum of the largest diameter and the axis at right angle to it. All tumors as well as lungs, liver, kidney and femur were excised at the end of the experiment for chemical and histopathological evaluation. Blood samples were also taken from each animal for determination of plasma retinol and triglyceride levels.
structure (smiles),measurement,value
"CC1=C(/C=C/C(C)=C/C=C/C(C)=C/C(=O)Cc2ccc(CC3OC(C(=O)O)C(O)C(O)C3O)cc2)C(C)(C)CCC1 [4-HBRCG (7), 2,6-Anhydro-7-deoxy-7-[4-(retinoylmethyl)-phenyl]-L-glycero-L-gulo-heptinoic acid]",% Weight change,+3%
